Laboratory results reported in the supplement of paper PMC11208160.

Assay: recombinant barcode read abundance after kanamycin selection (control-corrected) (log10(CPM+1)); higher = more efficient recombination; sequences stand for … in AGTGCAGAGAAAATCGGCCAGTTTTCTCTGCCTGCAGTCCGCATGCCGT…AGATTTATGCAGCGGACTGCCTTTCTCCCAAAGTGATAAACCGGACAGTATCATGGACCGGTTTTCCCGGTAATCCGTATTTGCAAGGTTGGTTTCACT; site = the 11-nt target
How it was run: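 Recombination efficiency was calculated from barcode counts at recombinant junctions, normalized to counts per million, averaged and corrected by the control. Each value is given as log10(CPM+1). The constructs were Gibson-cloned oligos (promoter, target, barcode, J23119-driven first 104 bridge RNA bases) in a vector with the remaining 73 bp and a T7-inducible recombinase, co-electroporated into E. coli with a donor plasmid and plated in duplicate on chloramphenicol/ampicillin LB agar (control) or chloramphenicol/ampicillin/kanamycin with 0.1 mM IPTG.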
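Note: IS621 recombinase and bridge RNA in Escherichia coli cells.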

Sequence	recombinant barcode read abundance (log10)
ATATGGGCTTGGGTTCTAACCTGTTGCCG (site ATATGAGCTCG)	0.369
ATATGGGCTTGGGTTCTAACCTGTTGCCG (site ATATGCGCTCG)	0.0627
ATATGGGCTTGGGTTCTAACCTGTTGCCG (site ATATGGGCTCG)	1.52
ATATGGGCTTGGGTTCTAACCTGTTGCCG (site ATATGTGCTCG)	0.1
ATATTGCCTTGGGTTCTAACCTGTTGCCT (site ATATTGCCTAG)	1.67
ATATTGCCTTGGGTTCTAACCTGTTGCCT (site ATATTGTCTTG)	0.0732
ATATTTCCTTGGGTTCTAACCTGTTGCCT (site AAATTTCCTAG)	0.0146
ATATTTCCTTGGGTTCTAACCTGTTGCCT (site ACATTTCCTAG)	0.0246
ATATTTCCTTGGGTTCTAACCTGTTGCCT (site AGATTTCCTAG)	0.163
ATATTTCCTTGGGTTCTAACCTGTTGCCT (site ATATTTCCTAG)	0.785
ATCCAGCCTTGGGTTCTAACCTGTTGCCT (site ATCCAACCTAG)	1.16
ATCCAGCCTTGGGTTCTAACCTGTTGCCT (site ATCCACCCTAG)	0.0824
ATCCAGCCTTGGGTTCTAACCTGTTGCCT (site ATCCAGCCTAG)	1.7
ATCCAGCCTTGGGTTCTAACCTGTTGCCT (site ATCCATCCTAG)	0.0724
ATCCCACCTTGGGTTCTAACCTGTTGCGG (site ATACTACCTCC)	0.0321
ATCCCACCTTGGGTTCTAACCTGTTGCGG (site ATCCCACCTCC)	1.89
ATCCTAGCTTGGGTTCTAACCTGTTGCCG (site ATCCTAGCTCG)	1.58
ATCCTAGCTTGGGTTCTAACCTGTTGCCG (site TTCCTAGCTTG)	0.299
ATCGCTCCTTGGGTTCTAACCTGTTGCCT (site AACGCTCCTAG)	0.128
ATCGCTCCTTGGGTTCTAACCTGTTGCCT (site ACCGCTCCTAG)	0.115
ATCGCTCCTTGGGTTCTAACCTGTTGCCT (site AGCGCTCCTAG)	0.122
ATCGCTCCTTGGGTTCTAACCTGTTGCCT (site ATCGCTCCTAG)	2.12

Sequence	recombinant barcode read abundance (log10)
ATCGGATCTTGGGTTCTAACCTGTTGCCT (site ATCGGAACTAG)	0.195
ATCGGATCTTGGGTTCTAACCTGTTGCCT (site ATCGGACCTAG)	0.0656
ATCGGATCTTGGGTTCTAACCTGTTGCCT (site ATCGGAGCTAG)	0.232
ATCGGATCTTGGGTTCTAACCTGTTGCCT (site ATCGGATCTAG)	0.678
ATCGGCCCTTGGGTTCTAACCTGTTGCTG (site ATCGGCCCTCA)	2.07
ATCGGCCCTTGGGTTCTAACCTGTTGCTG (site GTGGGCCCTCA)	0.0497
ATCTAAACTTGGGTTCTAACCTGTTGCCT (site ATCTAAACTAG)	0.842
ATCTAAACTTGGGTTCTAACCTGTTGCCT (site CGAGTCCCTCT)	0.105
ATCTACTCTTGGGTTCTAACCTGTTGCCT (site ATATACTCTCG)	0.382
ATCTACTCTTGGGTTCTAACCTGTTGCCT (site ATCTACTCTAG)	1.56
ATCTATACTTGGGTTCTAACCTGTTGCCT (site ATCTATACTAG)	0.821
ATCTATACTTGGGTTCTAACCTGTTGCCT (site GGACGAGCTCA)	0.0107
ATCTATCCTTGGGTTCTAACCTGTTGCAT (site ACCTAACCTAT)	0.179
ATCTATCCTTGGGTTCTAACCTGTTGCAT (site ATCTATCCTAT)	0.198
ATCTATTCTTGGGTTCTAACCTGTTGCCT (site ATCGATGCTAG)	0.198
ATCTATTCTTGGGTTCTAACCTGTTGCCT (site ATCTATTCTAG)	0.111
ATGAACACTTGGGTTCTAACCTGTTGCTG (site ATGAACACTCA)	1.95
ATGAACACTTGGGTTCTAACCTGTTGCTG (site TAATGGCCTTC)	0.0343
ATGAGAGCTTGGGTTCTAACCTGTTGCCT (site ATAAGACCTAG)	0.324
ATGAGAGCTTGGGTTCTAACCTGTTGCCT (site ATGAGAGCTAG)	1.05
ATGAGGACTTGGGTTCTAACCTGTTGCCT (site ATGAGGACTAG)	1.84
ATGAGGACTTGGGTTCTAACCTGTTGCCT (site CTGAGGACTAG)	0.362

Sequence	recombinant barcode read abundance (log10)
ATGAGGACTTGGGTTCTAACCTGTTGCCT (site GTGAGGACTAG)	0.12
ATGAGGACTTGGGTTCTAACCTGTTGCCT (site TTGAGGACTAG)	0.246
ATGAGGCCTTGGGTTCTAACCTGTTGCTA (site ATGAGGCCTTA)	0.739
ATGAGGCCTTGGGTTCTAACCTGTTGCTA (site TCAGAAGCTCG)	0.159
ATGATACCTTGGGTTCTAACCTGTTGCAT (site ATGATACCTAT)	1.71
ATGATACCTTGGGTTCTAACCTGTTGCAT (site CCTGGGACTTA)	0.243
ATGATATCTTGGGTTCTAACCTGTTGCCT (site AAGATATCTAG)	0.0255
ATGATATCTTGGGTTCTAACCTGTTGCCT (site ACGATATCTAG)	0.43
ATGATATCTTGGGTTCTAACCTGTTGCCT (site AGGATATCTAG)	0.181
ATGATATCTTGGGTTCTAACCTGTTGCCT (site ATGATATCTAG)	1.5
ATGCAATCTTGGGTTCTAACCTGTTGCCT (site ATGCAAACTAG)	0.104
ATGCAATCTTGGGTTCTAACCTGTTGCCT (site ATGCAACCTAG)	0.197
ATGCAATCTTGGGTTCTAACCTGTTGCCT (site ATGCAAGCTAG)	0.236
ATGCAATCTTGGGTTCTAACCTGTTGCCT (site ATGCAATCTAG)	1.09
ATGCGAGCTTGGGTTCTAACCTGTTGCGG (site ATGCGAGCTCA)	0.873
ATGCGAGCTTGGGTTCTAACCTGTTGCGG (site ATGCGAGCTCC)	1.92
ATGCGAGCTTGGGTTCTAACCTGTTGCGG (site ATGCGAGCTCG)	0.194
ATGCGAGCTTGGGTTCTAACCTGTTGCGG (site ATGCGAGCTCT)	1.37
ATGCGAGCTTGGGTTCTAACCTGTTGCTG (site ATGCGAGCTCA)	1.19
ATGCGAGCTTGGGTTCTAACCTGTTGCTG (site ATGCGAGCTCC)	0.687
ATGCGAGCTTGGGTTCTAACCTGTTGCTG (site ATGCGAGCTCG)	0.533
ATGCGAGCTTGGGTTCTAACCTGTTGCTG (site ATGCGAGCTCT)	0.76
